This is an account of results in patent publication US20250235543A1, “MODIFIED PROTEINS AND PROTEIN DEGRADERS” (Cullgen (Shanghai), Inc., priority 2021, published 2025).

One experiment concerns cyclin D1. Kind of experiment: Cyclin D1 percentage degradation in Calu-1 cells (immunoblotting). The experiment is classed as cell-based. The following applies: 16 hours. The procedure, abridged: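 Cyclin D1 degradation was assessed by western blot. Clarified lysates, obtained by RIPA lysis with inhibitors and centrifugation at 13,000 rpm, were normalized by BCA protein assay and separated by SDS-PAGE. Bands were detected with Western ECL Substrate on a Bio-Rad ChemiDoc MP Imaging system and quantified in Image Lab software to derive percentage degradation.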
On the technique in general: Immunoblotting shows a protein as a band on a membrane.

The next experiment addresses T1, CDK4 (Homo sapiens, UniProt P11802).
T1 construct: endogenous in cells; host or cells: Calu-1
The experiment is described as follows: CDK4 percentage degradation in Calu-1 cells (immunoblotting). The note with it: for inhibition at 0.2 µM: read-out: CDK4 Degradation (200 nM); for inhibition at 10 µM: read-out: CDK4 Degradation (10 μM). The experiment is classed as cell-based. Put shortly:
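CDK4 degradation was measured by immunoblotting. Cells were washed in cold PBS and lysed in RIPA buffer with inhibitors for 30 min at 4° C., then spun at 13,000 rpm to clear. After BCA protein determination, lysates were heated at 99° C. for 5 min in Laemmli buffer, resolved on SDS-PAGE, imaged on a ChemiDoc MP with ECL substrate, and band intensities quantified.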

The structures appear in SMILES notation. Like-named read-outs stand apart in the source and are kept apart here. Bounds are passed on as bounds.

T1 sequence (P11802 2-303 limits assumed): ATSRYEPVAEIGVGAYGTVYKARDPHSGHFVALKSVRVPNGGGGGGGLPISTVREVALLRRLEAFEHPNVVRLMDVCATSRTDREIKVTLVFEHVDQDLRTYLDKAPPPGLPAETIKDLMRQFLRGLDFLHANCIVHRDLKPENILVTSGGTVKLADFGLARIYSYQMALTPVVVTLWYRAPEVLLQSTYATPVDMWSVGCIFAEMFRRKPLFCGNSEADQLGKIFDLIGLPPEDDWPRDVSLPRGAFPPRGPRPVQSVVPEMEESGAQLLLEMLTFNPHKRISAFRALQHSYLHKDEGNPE
T1 sequence (P24385 whole entry partner): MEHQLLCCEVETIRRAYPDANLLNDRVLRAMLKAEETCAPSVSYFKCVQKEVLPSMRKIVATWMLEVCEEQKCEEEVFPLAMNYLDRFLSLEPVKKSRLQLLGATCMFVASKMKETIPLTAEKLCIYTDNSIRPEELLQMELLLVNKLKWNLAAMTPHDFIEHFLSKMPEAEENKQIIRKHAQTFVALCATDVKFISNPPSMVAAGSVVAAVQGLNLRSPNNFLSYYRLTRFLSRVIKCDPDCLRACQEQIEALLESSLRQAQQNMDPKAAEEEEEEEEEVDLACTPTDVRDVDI
T1 sequence (Q16531 2-1140 limits assumed, further chain): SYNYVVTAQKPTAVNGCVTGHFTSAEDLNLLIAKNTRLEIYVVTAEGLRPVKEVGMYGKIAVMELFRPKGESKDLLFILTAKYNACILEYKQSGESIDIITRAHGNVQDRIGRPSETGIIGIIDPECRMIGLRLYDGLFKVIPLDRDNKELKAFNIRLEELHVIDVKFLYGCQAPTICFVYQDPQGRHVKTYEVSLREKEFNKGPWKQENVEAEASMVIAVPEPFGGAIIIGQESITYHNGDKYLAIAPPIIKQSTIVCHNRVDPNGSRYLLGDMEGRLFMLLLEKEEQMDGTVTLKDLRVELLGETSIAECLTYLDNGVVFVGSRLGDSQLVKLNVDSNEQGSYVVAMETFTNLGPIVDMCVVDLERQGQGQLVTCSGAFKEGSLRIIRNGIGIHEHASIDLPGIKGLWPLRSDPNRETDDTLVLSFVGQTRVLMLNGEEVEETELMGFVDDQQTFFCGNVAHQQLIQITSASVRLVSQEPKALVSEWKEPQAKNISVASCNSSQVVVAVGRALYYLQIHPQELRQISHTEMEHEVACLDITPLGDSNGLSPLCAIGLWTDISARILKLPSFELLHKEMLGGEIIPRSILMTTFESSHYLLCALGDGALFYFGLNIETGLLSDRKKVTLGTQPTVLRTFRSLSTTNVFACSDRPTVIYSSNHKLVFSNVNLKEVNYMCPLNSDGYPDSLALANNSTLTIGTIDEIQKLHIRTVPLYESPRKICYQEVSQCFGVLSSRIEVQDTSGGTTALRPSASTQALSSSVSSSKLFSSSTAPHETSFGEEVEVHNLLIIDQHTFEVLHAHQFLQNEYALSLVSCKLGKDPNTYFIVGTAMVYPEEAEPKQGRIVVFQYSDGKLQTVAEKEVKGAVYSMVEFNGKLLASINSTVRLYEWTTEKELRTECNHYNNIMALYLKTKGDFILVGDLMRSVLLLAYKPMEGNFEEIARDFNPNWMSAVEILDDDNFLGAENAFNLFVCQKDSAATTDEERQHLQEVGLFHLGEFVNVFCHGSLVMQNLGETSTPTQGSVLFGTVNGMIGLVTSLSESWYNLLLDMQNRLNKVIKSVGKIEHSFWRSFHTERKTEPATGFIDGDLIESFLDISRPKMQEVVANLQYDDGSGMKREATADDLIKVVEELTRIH

As for `CC(=O)c1c(C)c2cnc(Nc3ccc(N4CCN(CC(=O)NCCOCCOCCC(=O)Nc5cc(Br)ccc5C(=O)Nc5nc(C)c(C)s5)CC4)cn3)nc2n(C2CCCC2)c1=O` [CPD-144, 2-(3-(2-(2-(2-(4-(6-((6-Acetyl-8-cyclopentyl-5-methyl-7-oxo-7,8-dihydropyrido[2,3-d]pyrimidin-2-yl)amino)pyridin-3-yl)piperazin-1-yl)acetamido)ethoxy)ethoxy)propanamido)-4-bromo-N-(4,5-dimethylthiazol-2-yl)benzamide], the “CyclinD1 Degradation (200 nM)” value in the experiment on cyclin D1 is listed as “A (protein percentage degradation >=80%)”. Further, the inhibition at 0.2 µM on CDK4 (Calu-1 cells, 200 nM, 16 hours) lay in the range of 50 to 80%.

As to `CCCCNc1ccc(C(=O)Nc2nc(C)c(C)s2)c(NC(=O)CCOCCOCCNC(=O)CN2CCN(c3ccc(Nc4ncc5c(C)c(C(C)=O)c(=O)n(C6CCCC6)c5n4)nc3)CC2)c1` [CPD-168, 2-(3-(2-(2-(2-(4-(6-((6-Acetyl-8-cyclopentyl-5-methyl-7-oxo-7,8-dihydropyrido[2,3-d]pyrimidin-2-yl)amino)pyridin-3-yl)piperazin-1-yl)acetamido)ethoxy)ethoxy)propanamido)-4-(butylamino)-N-(4,5-dimethylthiazol-2-yl)benzamide], the “CyclinD1 Degradation (200 nM)” value with cyclin D1 is reported as “A (protein percentage degradation >=80%)”. Besides, the inhibition at 0.2 µM on CDK4 (Calu-1 cells, 200 nM, 16 hours) lay within 50 to 80%.

Regarding `Cc1nc(NC(=O)c2ccccc2NC(=O)CCOCCOCCOCCOCCNC(=O)CN2CCN(Cc3ccc(Nc4ncc(F)c(-c5cc(F)c6nc(C)n(C(C)C)c6c5)n4)nc3)CC2)sc1C` [CPD-283, N-(4,5-Dimethylthiazol-2-yl)-2-(1-(4-((6-((5-fluoro-4-(4-fluoro-1-isopropyl-2-methyl-1H-benzo[d]imidazol-6-yl)pyrimidin-2-yl)amino)pyridin-3-yl)methyl)piperazin-1-yl)-2-oxo-6,9,12,15-tetraoxa-3-azaoctadecan-18-amido)benzamide], in the experiment on cyclin D1, the “CyclinD1 Degradation (10 μM)” value is recorded as “D (protein percentage degradation < 30%)”. The inhibition at 10 µM at CDK4 (Calu-1 cells, 16 hours) was less than 30%.

Regarding `CC(=O)c1c(C)c2cnc(Nc3ccc(N4CCN(CC(=O)NCCCCCNc5cc(Cl)ccc5C(=O)Nc5ccc(N(C)C)nn5)CC4)cn3)nc2n(C2CCCC2)c1=O` [CPD-374, 2-((5-(2-(4-(6-((6-Acetyl-8-cyclopentyl-5-methyl-7-oxo-7,8-dihydropyrido[2,3-d]pyrimidin-2-yl)amino)pyridin-3-yl)piperazin-1-yl)acetamido)pentyl)amino)-4-chloro-N-(6-(dimethylamino)pyridazin-3-yl)benzamide], the “CyclinD1 Degradation (200 nM)” value in the experiment on cyclin D1 was “A (protein percentage degradation >=80%)”. The inhibition at 0.2 µM at CDK4 (Calu-1 cells, 200 nM, 16 hours) lay within 50 to 80%.

Regarding `COc1ccc(NC(=O)c2ccc(N(C)C)cc2NC(=O)CCOCCOCCNC(=O)CN2CCN(c3ccc(Nc4ncc5c(C)c(C(C)=O)c(=O)n(C6CCCC6)c5n4)nc3)CC2)nn1` [CPD-365, 2-(3-(2-(2-(2-(4-(6-((6-Acetyl-8-cyclopentyl-5-methyl-7-oxo-7,8-dihydropyrido[2,3-d]pyrimidin-2-yl)amino)pyridin-3-yl)piperazin-1-yl)acetamido)ethoxy)ethoxy)propanamido)-4-(dimethylamino)-N-(6-methoxypyridazin-3-yl)benzamide], the “CyclinD1 Degradation (200 nM)” value in the experiment with cyclin D1 is recorded as “A (protein percentage degradation >=80%)”. For the same compound, the inhibition at 0.2 µM on CDK4 (Calu-1 cells, 200 nM, 16 hours) was greater than 80%.

With `CC(=O)c1c(C)c2cnc(Nc3ccc(N4CCN(CC(=O)NCCOCCOCCC(=O)Nc5ccccc5C(=O)Nc5ccc(C#N)cn5)CC4)cn3)nc2n(C2CCCC2)c1=O` [CPD-083, 2-(3-(2-(2-(2-(4-(6-((6-Acetyl-8-cyclopentyl-5-methyl-7-oxo-7,8-dihydropyrido[2,3-d]pyrimidin-2-yl)amino)pyridin-3-yl)piperazin-1-yl)acetamido)ethoxy)ethoxy)propanamido)-N-(5-cyanopyridin-2-yl)benzamide], the “CyclinD1 Degradation (200 nM)” value in the experiment with cyclin D1 is on record as “A (protein percentage degradation >=80%)”. For the same compound, at CDK4 (Calu-1 cells, 200 nM, 16 hours), the inhibition at 0.2 µM lay within 50 to 80%.

For the compound `CC(=O)c1c(C)c2cnc(Nc3ccc(N4CCN(CC(=O)NCCOCCOCCC(=O)Nc5c(C(=O)Nc6ccc(C)cn6)ccc6ncccc56)CC4)cn3)nc2n(C2CCCC2)c1=O` [CPD-362, 5-(3-(2-(2-(2-(4-(6-((6-Acetyl-8-cyclopentyl-5-methyl-7-oxo-7,8-dihydropyrido[2,3-d]pyrimidin-2-yl)amino)pyridin-3-yl)piperazin-1-yl)acetamido)ethoxy)ethoxy)propanamido)-N-(5-methylpyridin-2-yl)quinoline-6-carboxamide], the “CyclinD1 Degradation (200 nM)” value in the experiment on cyclin D1 is “D (protein percentage degradation <30%)”. The inhibition at 0.2 µM on CDK4 (Calu-1 cells, 200 nM, 16 hours) was less than 30%.

Take `CC(=O)c1c(C)c2cnc(Nc3ccc(N4CCN(C(=O)CCOCCOCCOCCNc5cccc(C(=O)Nc6nc(C)c(C)s6)c5C)CC4)cn3)nc2n(C2CCCC2)c1=O` [CPD-122, 3-((2-(2-(2-(3-(4-(6-((6-Acetyl-8-cyclopentyl-5-methyl-7-oxo-7,8-dihydropyrido[2,3-d]pyrimidin-2-yl)amino)pyridin-3-yl)piperazin-1-yl)-3-oxopropoxy)ethoxy)ethoxy)ethyl)amino)-N-(4,5-dimethylthiazol-2-yl)-2-methylbenzamide]: in the experiment on cyclin D1, the “CyclinD1 Degradation (200 nM)” value is on record as “A (protein percentage degradation >=80%)”. Besides, the inhibition at 0.2 µM at CDK4 (Calu-1, 16 h) was 50 to 80%.

For the compound `CC(=O)c1c(C)c2cnc(Nc3ccc(N4CCN(CC(=O)NCCOCCOCCNC(=O)COc5ccc(C(=O)Nc6ncc(C)s6)c(C)c5)CC4)cn3)nc2n(C2CCCC2)c1=O` [CPD-039, 4-((14-(4-(6-((6-Acetyl-8-cyclopentyl-5-methyl-7-oxo-7,8-dihydropyrido[2,3-d]pyrimidin-2-yl)amino)pyridin-3-yl)piperazin-1-yl)-2,13-dioxo-6,9-dioxa-3,12-diazatetradecyl)oxy)-2-methyl-N-(5-methylthiazol-2-yl)benzamide], the “CyclinD1 Degradation (200 nM)” value in the experiment on cyclin D1 is given as “D (protein percentage degradation <30%)”. Moreover, on CDK4 (Calu-1 cells, 200 nM, 16 hours), the inhibition at 0.2 µM is less than 30%.

`CC(=O)c1c(C)c2cnc(Nc3ccc(N4CCN(CC(=O)NCCCCCCCNC(=O)CNc5ccc(C(=O)Nc6ncc(C)s6)c(C)c5)CC4)cn3)nc2n(C2CCCC2)c1=O` [CPD-016, 4-((2-((7-(2-(4-(6-((6-Acetyl-8-cyclopentyl-5-methyl-7-oxo-7,8-dihydropyrido[2,3-d]pyrimidin-2-yl)amino)pyridin-3-yl)piperazin-1-yl)acetamido)heptyl)amino)-2-oxoethyl)amino)-2-methyl-N-(5-methylthiazol-2-yl)benzamide]: in the experiment on cyclin D1, the “CyclinD1 Degradation (200 nM)” value is on record as “D (protein percentage degradation <30%)”. On CDK4 (Calu-1 cells, 200 nM, 16 hours), the inhibition at 0.2 µM is less than 30%.

Take `CC(=O)c1c(C)c2cnc(Nc3ccc(N4CCN(CC(=O)NCCOCCOCCC(=O)Nc5ccccc5C(=O)Nc5ccc(N(C)C)nn5)CC4)cn3)nc2n(C2CCCC2)c1=O` [CPD-185, 2-(3-(2-(2-(2-(4-(6-((6-Acetyl-8-cyclopentyl-5-methyl-7-oxo-7,8-dihydropyrido[2,3-d]pyrimidin-2-yl)amino)pyridin-3-yl)piperazin-1-yl)acetamido)ethoxy)ethoxy)propanamido)-N-(6-(dimethylamino)pyridazin-3-yl)benzamide]: in the experiment on cyclin D1, the “CyclinD1 Degradation (200 nM)” value is “A (protein percentage degradation >=80%)”. The inhibition at 0.2 µM at CDK4 (Calu-1 cells, 200 nM, 16 hours) was greater than 80%.

Take `Cc1nc(NC(=O)c2ccccc2NC(=O)CCCNC(=O)CN2CCN(c3ccc(Nc4ncc5cc(C(=O)N(C)C)n(C6CCCC6)c5n4)nc3)CC2)sc1C` [CPD-288, 7-Cyclopentyl-2-((5-(4-(2-((4-((2-((4,5-dimethylthiazol-2-yl)carbamoyl)phenyl)amino)-4-oxobutyl)amino)-2-oxoethyl)piperazin-1-yl)pyridin-2-yl)amino)-N,N-dimethyl-7H-pyrrolo[2,3-d]pyrimidine-6-carboxamide]: the “CyclinD1 Degradation (10 μM)” value in the experiment on cyclin D1 is given as “A (protein percentage degradation >= 80%)”. Also, the inhibition at 10 µM at CDK4 (Calu-1 cells, 16 hours) was in the range of 50 to 80%.

Regarding `Cc1nc(NC(=O)c2ccccc2NC(=O)CCOCCOCCNC(=O)CN2CCN(c3ccc(Nc4ncc(F)c(-c5cc(F)c6nc(C)n(C(C)C)c6c5)n4)nc3)CC2)sc1C` [CPD-309, N-(4,5-Dimethylthiazol-2-yl)-2-(3-(2-(2-(2-(4-(6-((5-fluoro-4-(4-fluoro-1-isopropyl-2-methyl-1H-benzo[d]imidazol-6-yl)pyrimidin-2-yl)amino)pyridin-3-yl)piperazin-1-yl)acetamido)ethoxy)ethoxy)propanamido)benzamide], the “CyclinD1 Degradation (10 μM)” value in the experiment on cyclin D1 is given as “D (protein percentage degradation < 30%)”. Also, on CDK4 (Calu-1 cells, 16 hours), the inhibition at 10 µM is 30 to 50%.

`Cc1nc(NC(=O)c2ccccc2NC(=O)CCCNC(=O)CN2CCN(c3ccc(Nc4ncc5cc6n(c5n4)C4(CCCCC4)CNC6=O)nc3)CC2)sc1C` [CPD-316, N-(4,5-Dimethylthiazol-2-yl)-2-(4-(2-(4-(6-((6′-oxo-7′,8′-dihydro-6′H-spiro[cyclohexane-1,9′-pyrazino[1′,2′:1,5]pyrrolo[2,3-d]pyrimidin]-2′-yl)amino)pyridin-3-yl)piperazin-1-yl)acetamido)butanamido)benzamide]: the “CyclinD1 Degradation (10 μM)” value in the experiment with cyclin D1 is listed as “D (protein percentage degradation < 30%)”. Besides, the inhibition at 10 µM on CDK4 (Calu-1 cells, 16 hours) was less than 30%.

`CC(=O)c1c(C)c2cnc(Nc3ccc(N4CCN(C(=O)CNc5cccc(C(=O)Nc6nc(C)c(C)s6)c5C)CC4)cn3)nc2n(C2CCCC2)c1=O` [CPD-124, 3-((2-(4-(6-((6-Acetyl-8-cyclopentyl-5-methyl-7-oxo-7,8-dihydropyrido[2,3-d]pyrimidin-2-yl)amino)pyridin-3-yl)piperazin-1-yl)-2-oxoethyl)amino)-N-(4,5-dimethylthiazol-2-yl)-2-methylbenzamide]: in the experiment with cyclin D1, the “CyclinD1 Degradation (200 nM)” value is “D (protein percentage degradation <30%)”. Moreover, on CDK4 (Calu-1, 16 h), the inhibition at 0.2 µM was less than 30%.
